In US5961482A, “Iontotherapeutic device and process and iontotherapeutic unit dose” (Rutgers, The State University Of New Jersey, priority 1996, dated 1999):
“And” between values parts separate entries of the source, which are not always exact repeats. Identical values can stand only once.

What was measured:
[1] = In vitro skin permeation of vasopressin, Valia-Chien cell, H^3-vasopressin scintillation counting; format: in vitro ADME, hairless rat; details: pH 7.4
[2] = as above; format: in vitro ADME, hairless rat; details: for Enhancement factor: vs passive diffusion (1.32 ng/cm^2 /hr)
Protocol: (§1) An aqueous buffer solution of vasopressin (50 mcg/ml containing 1.7 mcCi/ml H^3 -vasopressin) is prepared in citrate-phosphate buffer at pH 5.0. An aliquot of 3.5 ml of this vasopressin solution is filled into the refillable dosage unit having a microporous membrane as the drug-releasingsurface. The dosage unit is then assembled as a part of the pharmaceutical reservoir electrode of the iontotherapeutic device and membrane surface thereof is applied to the stratum corneum side of hairless rat skin mounted in the Valia-Chien skin permeation cell at 37° C. Samples are withdrawn at regular intervals and radioactivity is measured by scintillation counter to determine the amount of vasopressin which has been transdermally absorbed.
as §1, with “aqueous buffered” for “aqueous buffer”, “pH 7.4 with varying ionic strengths.” for “pH 5.0.”, “the drug-releasing surface.” for “the drug-releasingsurface.”, “regular time” for “regular”
as §1, with “aqueous buffered” for “aqueous buffer”, “pH 5.0 at ionic strength of 0.064.” for “pH 5.0.”, “the drug-releasing surface.” for “the drug-releasingsurface.”, “regular time” for “regular”

[3] = test system: urine osmolarity in anesthetized rabbits; assay: Urine osmolarity / urine output in anesthetized rabbits; format: in vivo
Protocol: An aqueous buffer solution of vasopressin (40 IU/ml) is prepared in citrate-phosphate buffer at pH 5.0. Vasopressin is an anti-diuretic pharmaceutical, which is used by patients which have an excessive urine output. Vasopressin caused a reduction of urine output and an increase in ion content, such as sodium ion content. Ion content in the urine is determined by using osmolarity measurement. An aliquot of 3.5 ml of this vasopressin solution is filled into the refillable dosage unit having a microporous membrane as the drug-releasing surface. The dosage unit is then assembled as a part of the pharmaceutical reservoir electrode of the iontotherapeutic device and membrane surface thereof is applied to the abdominal skin of 2 groups of anesthetized rabbits. Blood samples are withdrawn and urine samples are collected at regular time intervals and urine osmolarity is measured by osmometer. The increases in osmolarity from the basal level are the pharmacodynamic responses to the vasopressin transdermally absorbed.

[4] = TPIS 0.3 mA, 16 KHz, on/off 1/1, 60 min, pH 5.0, ionic strength 0.064

NC(=O)CC[C@@H]1NC(=O)[C@H](Cc2ccccc2)NC(=O)[C@H](Cc2ccc(O)cc2)NC(=O)[C@@H](N)CSSC[C@@H](C(=O)N2CCC[C@H]2C(=O)N[C@@H](CCCN=C(N)N)C(=O)NCC(N)=O)NC(=O)[C@H](CC(N)=O)NC1=O [Vasopressin, vasopressin]
Skin Permeation Rate ([1]; TPIS 0.5 mA, 2 KHz, on/off 1/1, ionic strength 0.061, ± SD): 632.6 (±65.0) ng/cm^2 /hr | Skin Permeation Rate ([1]; TPIS 0.5 mA, 2 KHz, on/off 1/1, ionic strength 0.244, ± SD): 101.4 (±9.1) ng/cm^2 /hr | Skin Permeation Rate ([1]; passive diffusion, 30 hours): 1.32±0.38 ng/cm^2 /hr | Skin Permeation Rate ([2]; NO TPIS, 0.0 mA (passive diffusion), pH 5.0, X ± SD): 0.94±0.62 ng/cm^2 hr and 0.94 (±0.62) ng/cm^2 hr | Skin Permeation Lag Time ([2]; NO TPIS, 0.0 mA, pH 5.0, X ± SD): 9.12 (±1.06) hours | time after TPIS treatment for skin permeability to return to the rate before treatment ([2]; TPIS 0.3 mA, 16 KHz, 60 min, pH 5.0, ionic strength 0.064): less than 2 hours | Skin Permeation Rate [2, 4]: 757.3 (±53.2) ng/cm^2 /hr | duration of time lag [2, 4]: 0.40 (±0.06) hours | Skin Permeation Rate ([2]; TPIS 0.5 mA, 2 KHz, on/off 1/1, pH 7.4, ionic strength 0.122, ± SD): 244.6 (±26.3) ng/cm^2 /hr | Skin Permeation Rate ([2]; TPIS 0.5 mA, 2 KHz, on/off 1/1, pH 7.4, ionic strength 0.488, ± SD): 65.9 (±13.1) ng/cm^2 /hr | Skin Permeation Lag Time ([2]; With TPIS, activation phase, 0.5 mA, 2 KHz, on/off 1/1, 10 min per 40 min, pH 5.0): < 0.5 h | Skin Permeation Rate ([2]; With TPIS, activation phase, 0.5 mA, 2 KHz, on/off 1/1, 10 min per 40 min, pH 5.0, X ± SD): 116.2 (±10.7) ng/cm^2 hr | Skin Permeation Lag Time ([2]; With TPIS, activation phase, 1.0 mA, 2 KHz, on/off 1/1, 10 min per 40 min, pH 5.0): < 0.5 h | Skin Permeation Rate ([2]; With TPIS, activation phase, 1.0 mA, 2 KHz, on/off 1/1, 10 min per 40 min, pH 5.0, X ± SD): 178.0 (±25) ng/cm^2 hr | duration of time lag ([2]; passive diffusion, pH 5.0, ionic strength 0.064): 9 h | Skin Permeation Rate ([2]; passive diffusion, pH 5.0, ionic strength 0.064, 30 hours): 0.98±0.26 ng/cm^2 /hr | Skin Permeation Rate ([2]; post-activation phase (0.0 mA) after 0.5 mA TPIS, pH 5.0, X ± SD): 0.7 (±0.4) ng/cm^2 hr | Skin Permeation Rate ([2]; post-activation phase (0.0 mA) after 1.0 mA TPIS, pH 5.0, X ± SD): 5.3 (±0.5) ng/cm^2 hr | Enhancement factor ([2]; TPIS 0.5 mA, ionic strength 0.061): 472.8 (±59.0) | Enhancement factor ([2]; TPIS 0.5 mA, ionic strength 0.122): 185.3 (±19.9) | Enhancement factor ([2]; TPIS 0.5 mA, ionic strength 0.244): 76.8 (±6.9) | Enhancement factor ([2]; TPIS 0.5 mA, ionic strength 0.488): 49.9 (±18.0) | urine osmolarity, TPIS vs TIDD ([3]; TPIS 0.22 mA/cm^2, 2 KHz, on/off 1/1, square, 40 min, 40 IU/ml pH 5.0): increases from the basal levels more rapidly and substantially | urine output, TPIS vs TIDD ([3]; TPIS, vasopressin solution pH 5.0): more effective in reducing urine output than TIDD
